Source: ChEMBL document CHEMBL1201862, “PubChem BioAssay data set” (2004)
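Method: 48-hour compound exposure of cells in 96-well plates, five concentrations, linear interpolation of endpoints. GI50: concentration for 50% inhibition of growth.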 The source made the active and inactive calls. Rule as the data show it: active = GI50 up to about 1.1 µM and inactive = higher.

How the values were obtained:
Assay in all cases: growth of human tumour cells (NCI), 48 h
786-0 = test system: 786-0
A549 = test system: A549
BT-549 = test system: BT-549
CAKI-1 = test system: CAKI-1
CCRF-CEM = test system: CCRF-CEM
DU-145 = test system: DU-145
EKVX = test system: EKVX
HL-60 = test system: HL-60
IGROV-1 = test system: IGROV-1
MDA-N = test system: MDA-N
NCI-H226 = test system: NCI-H226
NCI-H23 = test system: NCI-H23
NCI-H522 = test system: NCI-H522
NCI/ADR-RES = test system: NCI/ADR-RES
OVCAR-4 = test system: OVCAR-4
PC-3 = test system: PC-3
SR = test system: SR
TK-10 = test system: TK-10
LOX IMVI = test system: LOX IMVI
T47D = test system: T47D

Structure (SMILES) | GI50 (786-0) | GI50 (A549) | GI50 (BT-549) | GI50 (CAKI-1) | GI50 (CCRF-CEM) | GI50 (DU-145) | GI50 (EKVX) | GI50 (HL-60) | GI50 (IGROV-1) | GI50 (MDA-N) | GI50 (NCI-H226) | GI50 (NCI-H23) | GI50 (NCI-H522) | GI50 (NCI/ADR-RES) | GI50 (OVCAR-4) | GI50 (PC-3) | GI50 (SR) | GI50 (TK-10) | GI50 (LOX IMVI) | GI50 (T47D)
O=C1c2ccccc2C2=Nc3ccncc3CN12 | > 100 µM (inactive) | > 100 µM (inactive) | > 100 µM (inactive) | > 100 µM (inactive) | > 100 µM (inactive) | > 100 µM (inactive) | 25.9 µM (inactive) | > 100 µM (inactive) | > 100 µM (inactive) | > 100 µM (inactive) | > 100 µM (inactive) | > 100 µM (inactive) | > 100 µM (inactive) | > 100 µM (inactive) | > 100 µM (inactive) | > 100 µM (inactive) | > 100 µM (inactive) | > 100 µM (inactive) | – | –
Cc1ccccc1Nc1nc2ccccc2nc1NS(=O)(=O)c1ccccc1 | > 100 µM (inactive) | > 100 µM (inactive) | – | > 100 µM (inactive) | > 100 µM (inactive) | – | > 100 µM (inactive) | > 100 µM (inactive) | > 100 µM (inactive) | – | > 100 µM (inactive) | 43.1 µM (inactive) | > 100 µM (inactive) | > 100 µM (inactive) | 38.5 µM (inactive) | > 100 µM (inactive) | > 100 µM (inactive) | > 100 µM (inactive) | > 100 µM (inactive) | > 100 µM (inactive)
c1ccc(/C(=N/Nc2ccncn2)c2ccccn2)cc1 | 17.8 µM (inactive) | 30.4 µM (inactive) | 35.1 µM (inactive) | 15.5 µM (inactive) | 1.65 µM (inactive) | 34.6 µM (inactive) | 4.34 µM (inactive) | – | 17 µM (inactive) | 58.5 µM (inactive) | 15.8 µM (inactive) | 17.6 µM (inactive) | 0.776 µM (active) | 18.4 µM (inactive) | 49.1 µM (inactive) | 36.5 µM (inactive) | 10.5 µM (inactive) | – | – | –
CC(=O)Nc1ccc(S(=O)(=O)/N=c2/sc(S(N)(=O)=O)nn2C)cc1 | > 100 µM (inactive) | > 100 µM (inactive) | > 100 µM (inactive) | > 100 µM (inactive) | – | > 100 µM (inactive) | > 100 µM (inactive) | > 100 µM (inactive) | – | – | > 100 µM (inactive) | > 100 µM (inactive) | > 100 µM (inactive) | > 100 µM (inactive) | > 100 µM (inactive) | > 100 µM (inactive) | > 100 µM (inactive) | > 100 µM (inactive) | – | –
O=C1C2=Cc3ccccc3CCN2c2ccccc21 | 19.6 µM (inactive) | 49.2 µM (inactive) | 13.8 µM (inactive) | 19.1 µM (inactive) | 13.6 µM (inactive) | > 75.3 µM (inactive) | 29 µM (inactive) | 18.9 µM (inactive) | 30.2 µM (inactive) | > 10 µM (inactive) | 13.9 µM (inactive) | > 59.6 µM (inactive) | 40.2 µM (inactive) | 30.1 µM (inactive) | 33.7 µM (inactive) | 35.2 µM (inactive) | 14.9 µM (inactive) | > 100 µM (inactive) | 17.3 µM (inactive) | –
CC(=O)ON(OC(C)=O)c1ccc(C)cc1 | > 100 µM (inactive) | > 100 µM (inactive) | > 100 µM (inactive) | > 100 µM (inactive) | < 0.01 µM (active) | > 100 µM (inactive) | > 100 µM (inactive) | – | > 100 µM (inactive) | > 100 µM (inactive) | – | > 100 µM (inactive) | > 100 µM (inactive) | > 100 µM (inactive) | > 100 µM (inactive) | > 100 µM (inactive) | – | > 100 µM (inactive) | – | –
CSc1nc(Cl)c2c(n1)Sc1nc3cc4c(cc3n1C2O)OCO4 (stereo not drawn) | 0.321 µM (active) | 0.617 µM (active) | 0.452 µM (active) | 2.95 µM (inactive) | 0.269 µM (active) | 0.318 µM (active) | 5.75 µM (inactive) | – | 0.392 µM (active) | 0.237 µM (active) | 1.1 µM (active) | 0.891 µM (active) | 0.26 µM (active) | 0.385 µM (active) | > 100 µM (inactive) | 0.306 µM (active) | – | 1.65 µM (inactive) | 0.206 µM (active) | –
COc1ccc2cc(NC(=O)N/N=C\c3ccc(Cl)cc3)ccc2c1 | 40 µM (inactive) | > 100 µM (inactive) | > 100 µM (inactive) | > 100 µM (inactive) | > 100 µM (inactive) | > 100 µM (inactive) | > 100 µM (inactive) | > 100 µM (inactive) | 88.7 µM (inactive) | > 100 µM (inactive) | > 100 µM (inactive) | > 100 µM (inactive) | > 100 µM (inactive) | 86.3 µM (inactive) | 27 µM (inactive) | > 100 µM (inactive) | > 100 µM (inactive) | > 100 µM (inactive) | > 100 µM (inactive) | –
COC(=O)/C(=N\N)C(C(=O)C(=O)Nc1cccc([N+](=O)[O-])c1)c1nc2ccc(C(=O)c3ccccc3)cc2nc1O (stereo not drawn) | > 100 µM (inactive) | 61.4 µM (inactive) | > 100 µM (inactive) | > 100 µM (inactive) | 22.3 µM (inactive) | > 100 µM (inactive) | > 100 µM (inactive) | 32.5 µM (inactive) | > 100 µM (inactive) | > 100 µM (inactive) | > 100 µM (inactive) | > 100 µM (inactive) | 72.1 µM (inactive) | > 100 µM (inactive) | 40.2 µM (inactive) | 84.5 µM (inactive) | – | 39.9 µM (inactive) | > 100 µM (inactive) | –
N#Cc1c(-c2ccccc2)c(C#N)c(=O)n(NS(=O)(=O)c2ccccc2)c1O | > 100 µM (inactive) | > 100 µM (inactive) | > 100 µM (inactive) | > 100 µM (inactive) | > 100 µM (inactive) | – | > 100 µM (inactive) | > 100 µM (inactive) | > 100 µM (inactive) | > 100 µM (inactive) | > 100 µM (inactive) | – | > 100 µM (inactive) | > 100 µM (inactive) | > 100 µM (inactive) | > 100 µM (inactive) | – | > 100 µM (inactive) | > 100 µM (inactive) | –
O=[N+]([O-])c1cc(Cl)ccc1S(=O)(=O)N1CCCc2cc(Cl)ccc21 | > 100 µM (inactive) | 43.1 µM (inactive) | 31.9 µM (inactive) | 45.2 µM (inactive) | 6.17 µM (inactive) | 61.5 µM (inactive) | > 100 µM (inactive) | > 10 µM (inactive) | 30.8 µM (inactive) | 22.5 µM (inactive) | 82.4 µM (inactive) | – | – | 25.5 µM (inactive) | 88.9 µM (inactive) | 55 µM (inactive) | – | > 100 µM (inactive) | 34.8 µM (inactive) | –
Cc1nc2c(o1)C(=O)c1ccccc1/C2=N/c1ccccn1 | 25.6 µM (inactive) | 31.8 µM (inactive) | 18.3 µM (inactive) | 25.8 µM (inactive) | 18.5 µM (inactive) | – | 17.7 µM (inactive) | 15.5 µM (inactive) | 22.6 µM (inactive) | 17.3 µM (inactive) | – | 11.5 µM (inactive) | 19 µM (inactive) | 15.8 µM (inactive) | 15 µM (inactive) | 30.8 µM (inactive) | 24.1 µM (inactive) | > 100 µM (inactive) | 19.1 µM (inactive) | –
CC(C)(CN1CCCCC1)C(/C=C/c1ccccc1)=N\NC(=O)N/N=C(/C=C/c1ccccc1)C(C)(C)CN1CCCCC1 | 1.46 µM (inactive) | 2.43 µM (inactive) | 1.77 µM (inactive) | 2.27 µM (inactive) | 1.19 µM (inactive) | – | 6.84 µM (inactive) | 1.08 µM (active) | 2.51 µM (inactive) | 1.63 µM (inactive) | 2.37 µM (inactive) | 2.08 µM (inactive) | 1.83 µM (inactive) | 1.74 µM (inactive) | 3.93 µM (inactive) | 1.97 µM (inactive) | 0.508 µM (active) | 1.75 µM (inactive) | 1.8 µM (inactive) | –
COc1c(C)c(C/C=C(\C)CCCCO)c(OC)c2ccccc12 | 38 µM (inactive) | 36.1 µM (inactive) | 46.7 µM (inactive) | 17.9 µM (inactive) | 28.8 µM (inactive) | 45.3 µM (inactive) | 61.5 µM (inactive) | – | 65.8 µM (inactive) | 42.2 µM (inactive) | – | 29.7 µM (inactive) | 19.1 µM (inactive) | 42.6 µM (inactive) | 38.5 µM (inactive) | 34.4 µM (inactive) | 26.3 µM (inactive) | 63.8 µM (inactive) | 18.8 µM (inactive) | –
COc1cc(C2c3cc4c(cc3[C@@H](Nc3ccc([N+](=O)[O-])cc3)C3COC(=O)[C@H]23)OCO4)cc(OC)c1O (stereo partly drawn) | 0.652 µM (active) | – | 2.3 µM (inactive) | 0.438 µM (active) | 0.198 µM (active) | 0.362 µM (active) | 3.37 µM (inactive) | 0.263 µM (active) | 4.72 µM (inactive) | 4.09 µM (inactive) | 0.67 µM (active) | 0.569 µM (active) | 1.63 µM (inactive) | 3.39 µM (inactive) | 12.2 µM (inactive) | 2.16 µM (inactive) | 0.0552 µM (active) | 2.41 µM (inactive) | 0.459 µM (active) | –
Cc1cc(S(=O)(=O)Nc2nc3ccccc3c(=O)n2N)c(S)cc1Cl | 21.3 µM (inactive) | 31.1 µM (inactive) | 47.6 µM (inactive) | 31.8 µM (inactive) | 62.5 µM (inactive) | 43 µM (inactive) | 43.6 µM (inactive) | > 100 µM (inactive) | 43.8 µM (inactive) | 38.1 µM (inactive) | 21.7 µM (inactive) | 31.8 µM (inactive) | – | 24.5 µM (inactive) | 29.6 µM (inactive) | 69.3 µM (inactive) | – | 48.1 µM (inactive) | 37.2 µM (inactive) | –
